This note sets out measurements from patent US11753407B2, “Compounds for treating spinal muscular atrophy” (PTC Therapeutics, Inc., priority 2012, dated 2023).

Data set [1] has as its system SMN2 minigene mRNA (SMN2-A minigene) in HEK293H cells. Nature of the data set: SMN2 minigene mRNA splicing RT-qPCR assay in cultured cells. The format is cell-based, human. The note with it: Homo sapiens, HEK293-H; concentration increasing full length SMN2 mRNA 1.5-fold relative to vehicle-treated cells; HEK293H cells with SMN2-A minigene, 24 hours, 7-point concentration data; read-out: EC1.5x for production of full length SMN2 mRNA. In outline:
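Potency reflects the concentration that lifts full-length SMN2 minigene mRNA 1.5-fold above vehicle in stably transfected HEK293H cells after 24 h of treatment. Transcript abundance came from RT-qPCR as (1+E)^−Ct, normalized to GAPDH; endogenous SMN1/SMN2 are not detected.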

Data set [2] concerns Smn protein in SMA patient fibroblast cells (GM03813). Nature of the data set: Smn protein assay in cultured cells (SMN HTRF). The data set is classed as cell-based, human. Particulars: SMA patient fibroblast cells, 48 hours; for EC1.5x for Smn protein expression: 7-point concentration curve, SMN HTRF, concentration producing 1.5 times Smn protein vs DMSO vehicle control; for maximum fold (Fold) increase of Smn protein: 7-point concentration data, fold relative to vehicle control. The procedure, abridged: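 Smn protein abundance in treated SMA fibroblasts was measured by HTRF after 48 h compound exposure. The reported EC1.5× is the concentration producing 1.5 times vehicle Smn levels.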
On the technique in general: In TR-FRET formats the signal depends on donor and acceptor labels being close together.

`CCCc1nc(C)cn2nc(-c3cc(=O)n4cc(N5C[C@@H](C)N[C@@H](C)C5)ccc4n3)cc12` [Compound 729, 7-[(3R,5S)-3,5-dimethylpiperazin-1-yl]-2-(6-methyl-4-propylpyrazolo[1,5-a]pyrazin-2-yl)-4H-pyrido[1,2-a]pyrimidin-4-one]: the melting point (in general, the temperature of the solid-liquid transition) was in the range of 249 to 251 °C. The EC (1.5-fold increase) in data set [1] is 0.1 to 0.3 µM. Moreover, in data set [2], the “EC1.5x for Smn protein expression” value is “*** (an EC1.5× between >0.3 μM and ≤1 μM is indicated by three stars (***))”; the “maximum fold (Fold) increase of Smn protein” value (from here on “maximum fold (Fold) increase”) is reported as “***** (a fold increase >1.65 is indicated by five stars (*****))”.
The compound `Cc1cn2cc(-c3cc(=O)n4cc(N5CCN(C(C)C)[C@H](C)C5)ccc4n3)cc2c(C)n1` [Compound 730, 2-(1,3-dimethylpyrrolo[1,2-a]pyrazin-7-yl)-7-[(3R)-3-methyl-4-(propan-2-yl)piperazin-1-yl]-4H-pyrido[1,2-a]pyrimidin-4-one] gave a melting point of 249 to 251 °C. Moreover, in data set [1], the EC (1.5-fold increase) is less than 0.1 µM. Also, in data set [2], the “EC1.5x for Smn protein expression” value was “**** (an EC1.5x≤0.3 μM is indicated by four stars (****))” and the “maximum fold (Fold) increase” value is “***** (a fold increase >1.65 is indicated by five stars (*****))”.
On the same counts, the results for `Cc1cn2cc(-c3cc(=O)n4cc(N5CCC(C)(N)CC5)ccc4n3)cc2c(C)n1` [Compound 731, 7-(4-amino-4-methylpiperidin-1-yl)-2-(1,3-dimethylpyrrolo[1,2-a]pyrazin-7-yl)-4H-pyrido[1,2-a]pyrimidin-4-one] are 244 to 246 °C, less than 0.1 µM, “**** (an EC1.5x≤0.3 μM is indicated by four stars (****))” and “***** (a fold increase >1.65 is indicated by five stars (*****))”.
Take `CC[C@H]1CN(c2cc(C)c3nc(-c4cc5c(C)nc(C)cn5n4)cc(=O)n3c2)CCN1` [Compound 732, 2-(4,6-dimethylpyrazolo[1,5-a]pyrazin-2-yl)-7-[(3S)-3-ethylpiperazin-1-yl]-9-methyl-4H-pyrido[1,2-a]pyrimidin-4-one]: the melting point was 243 to 251 °C. The EC (1.5-fold increase) in data set [1] lay in the range of 0.3 to 1 µM. Also, in data set [2], the “EC1.5x for Smn protein expression” value was “*** (an EC1.5× between >0.3 μM and ≤1 μM is indicated by three stars (***))”; the “maximum fold (Fold) increase” value is “**** (a fold increase between >1.5 and ≤1.65 is indicated by four stars (****))”.
`Cc1cn2cc(-c3cc(=O)n4cc(N5CCNCC5)ccc4n3)cc(C(F)(F)F)c2n1` [Compound 733, 2-[2-methyl-8-(trifluoromethyl)imidazo[1,2-a]pyridin-6-yl]-7-(piperazin-1-yl)-4H-pyrido[1,2-a]pyrimidin-4-one] had a melting point of 325 to 328 °C. In data set [1], the EC (1.5-fold increase) is less than 0.1 µM. Besides, in data set [2], the “EC1.5x for Smn protein expression” value is recorded as “**** (an EC1.5x≤0.3 μM is indicated by four stars (****))” and the “maximum fold (Fold) increase” value was “***** (a fold increase >1.65 is indicated by five stars (*****))”.
On the same counts, the results for `Cc1cn2cc(-c3cc(=O)n4cc(N5CCN[C@H](C)C5)ccc4n3)cc(C(F)(F)F)c2n1` [Compound 734, 7-[(3R)-3-methylpiperazin-1-yl]-2-[2-methyl-8-(trifluoromethyl)imidazo[1,2-a]pyridin-6-yl]-4H-pyrido[1,2-a]pyrimidin-4-one] are 303 to 306 °C, less than 0.1 µM, “**** (an EC1.5x≤0.3 μM is indicated by four stars (****))” and “***** (a fold increase >1.65 is indicated by five stars (*****))”.
Take `Cc1cn2cc(-c3cc(=O)n4cc(N5CCN[C@@H](C)C5)ccc4n3)cc(C(F)(F)F)c2n1` [Compound 735, 7-[(3S)-3-methylpiperazin-1-yl]-2-[2-methyl-8-(trifluoromethyl)imidazo[1,2-a]pyridin-6-yl]-4H-pyrido[1,2-a]pyrimidin-4-one]: the melting point is greater than 320 °C. Further, in data set [1], the EC (1.5-fold increase) is less than 0.1 µM. For the same compound, in data set [2], the “EC1.5x for Smn protein expression” value was “**** (an EC1.5x≤0.3 μM is indicated by four stars (****))”; the “maximum fold (Fold) increase” value is “**** (a fold increase between >1.5 and ≤1.65 is indicated by four stars (****))”.
The compound `Cc1cn2cc(-c3cc(=O)n4cc(N5C[C@@H](C)N[C@@H](C)C5)ccc4n3)cc(C(F)(F)F)c2n1` [Compound 736, 7-[(3R,5S)-3,5-dimethylpiperazin-1-yl]-2-[2-methyl-8-(trifluoromethyl)imidazo[1,2-a]pyridin-6-yl]-4H-pyrido[1,2-a]pyrimidin-4-one] had a melting point of 293 to 296 °C. In addition, in data set [1], the EC (1.5-fold increase) is less than 0.1 µM. Further, in data set [2], the “EC1.5x for Smn protein expression” value is listed as “**** (an EC1.5x≤0.3 μM is indicated by four stars (****))” and the “maximum fold (Fold) increase” value was “***** (a fold increase >1.65 is indicated by five stars (*****))”.
On the same counts, the results for `CCc1nc(C)cn2nc(-c3cc(=O)n4cc(N5CCC(C)(N)CC5)ccc4n3)cc12` [Compound 737, 7-(4-amino-4-methylpiperidin-1-yl)-2-(4-ethyl-6-methylpyrazolo[1,5-a]pyrazin-2-yl)-4H-pyrido[1,2-a]pyrimidin-4-one] are 216 to 218 °C, less than 0.1 µM, “**** (an EC1.5x≤0.3 μM is indicated by four stars (****))” and “***** (a fold increase >1.65 is indicated by five stars (*****))”.
For `Cc1cc(-c2cc(=O)n3cc(N4CCNCC4)ccc3n2)cc2cn(C)nc12` [Compound 738, 2-(2,7-dimethyl-2H-indazol-5-yl)-7-(piperazin-1-yl)-4H-pyrido[1,2-a]pyrimidin-4-one], the melting point lay within 194 to 196 °C. For the same compound, the EC (1.5-fold increase) in data set [1] is less than 0.1 µM. In data set [2], the “EC1.5x for Smn protein expression” value was “**** (an EC1.5x≤0.3 μM is indicated by four stars (****))” and the “maximum fold (Fold) increase” value is reported as “***** (a fold increase >1.65 is indicated by five stars (*****))”.
For the compound `Cc1cc(-c2cc(=O)n3cc(C4CCNCC4)ccc3n2)cc2cn(C)nc12` [Compound 739, 2-(2,7-dimethyl-2H-indazol-5-yl)-7-(piperidin-4-yl)-4H-pyrido[1,2-a]pyrimidin-4-one], the melting point lay in the range of 228 to 230 °C. Also, the EC (1.5-fold increase) in data set [1] is less than 0.1 µM. For the same compound, in data set [2], the “EC1.5x for Smn protein expression” value is reported as “**** (an EC1.5x≤0.3 μM is indicated by four stars (****))” and the “maximum fold (Fold) increase” value is “***** (a fold increase >1.65 is indicated by five stars (*****))”.
The compound `Cc1cn2nc(-c3cc(=O)n4cc(C#CCN)ccc4n3)cc2c(C)n1` [Compound 740, 7-(3-aminoprop-1-yn-1-yl)-2-(4,6-dimethylpyrazolo[1,5-a]pyrazin-2-yl)-4H-pyrido[1,2-a]pyrimidin-4-one] came in with a melting point of 242 to 244 °C. Further, in data set [1], the EC (1.5-fold increase) fell in the range of 0.3 to 1 µM. Further, in data set [2], the “EC1.5x for Smn protein expression” value was “*** (an EC1.5× between >0.3 μM and ≤1 μM is indicated by three stars (***))”; the “maximum fold (Fold) increase” value is “***** (a fold increase >1.65 is indicated by five stars (*****))”.
The compound `Cc1cc(-c2cc(=O)n3cc(N4CCN[C@H](C)C4)ccc3n2)cc2cn(C)nc12` [Compound 741, 2-(2,7-dimethyl-2H-indazol-5-yl)-7-[(3R)-3-methylpiperazin-1-yl]-4H-pyrido[1,2-a]pyrimidin-4-one] returned a melting point of 170 to 172 °C. Besides, in data set [1], the EC (1.5-fold increase) was less than 0.1 µM. Further, in data set [2], the “EC1.5x for Smn protein expression” value was “**** (an EC1.5x≤0.3 μM is indicated by four stars (****))” and the “maximum fold (Fold) increase” value was “***** (a fold increase >1.65 is indicated by five stars (*****))”.
On the same counts, the results for `Cc1cn2cc(-c3cc(=O)n4cc(C5=CCNCC5)ccc4n3)cc2c(C)n1` [Compound 743, 2-(1,3-dimethylpyrrolo[1,2-a]pyrazin-7-yl)-7-(1,2,3,6-tetrahydropyridin-4-yl)-4H-pyrido[1,2-a]pyrimidin-4-one] are 189 to 191 °C, less than 0.1 µM, “**** (an EC1.5x≤0.3 μM is indicated by four stars (****))” and “***** (a fold increase >1.65 is indicated by five stars (*****))”.
Compound `Cc1cn2nc(-c3cc(=O)n4cc(C5=CC(C)(C)NC(C)(C)C5)ccc4n3)cc2c(C)n1` [Compound 744, 2-(4,6-dimethylpyrazolo[1,5-a]pyrazin-2-yl)-7-(2,2,6,6-tetramethyl-1,2,3,6-tetrahydropyridin-4-yl)-4H-pyrido[1,2-a]pyrimidin-4-one] gave a melting point of 218 to 221 °C. The EC (1.5-fold increase) in data set [1] was less than 0.1 µM. Also, in data set [2], the “EC1.5x for Smn protein expression” value was “*** (an EC1.5× between >0.3 μM and ≤1 μM is indicated by three stars (***))”; the “maximum fold (Fold) increase” value was “*** (a fold increase between >1.35 and ≤1.5 is indicated by three stars (***))”.
